Experimental data taken from ChEMBL document CHEMBL3351946, “Design and synthesis of potent antitumor water-soluble phenyl N-mustard-benzenealkylamide conjugates via a bioisostere approach” (Eur J Med Chem, 2014).
Activity calls are given as the source filed them. No cut-off for these calls is given here.

Tests used:
[1] = tested on: Mus musculus; test: Toxicity in nude mouse xenografted with human H460 cells assessed as body weight loss at 30 mg/kg,iv qd administered for 6 days measured on day 37 relative to control; format: organism-based; parameters: dose 30 mg/kg; details: in vivo, 144 h
[2] = tested on: Mus musculus; test: Toxicity in nude mouse xenografted with human PC3 cells assessed as change in body weight at 40 mg/kg,iv administered every 2 days for 5 doses measured on day 38 relative to control; format: organism-based, PC-3; parameters: dose 40 mg/kg; details: in vivo, 48 h
[3] = biological target: Voltage-gated inwardly rectifying potassium channel KCNH2 (Homo sapiens, UniProt Q12809); test: Binding affinity to human ERG after 4 hrs by fluorescence polarization assay
Sequence of Voltage-gated inwardly rectifying potassium channel KCNH2 (Q12809 whole entry): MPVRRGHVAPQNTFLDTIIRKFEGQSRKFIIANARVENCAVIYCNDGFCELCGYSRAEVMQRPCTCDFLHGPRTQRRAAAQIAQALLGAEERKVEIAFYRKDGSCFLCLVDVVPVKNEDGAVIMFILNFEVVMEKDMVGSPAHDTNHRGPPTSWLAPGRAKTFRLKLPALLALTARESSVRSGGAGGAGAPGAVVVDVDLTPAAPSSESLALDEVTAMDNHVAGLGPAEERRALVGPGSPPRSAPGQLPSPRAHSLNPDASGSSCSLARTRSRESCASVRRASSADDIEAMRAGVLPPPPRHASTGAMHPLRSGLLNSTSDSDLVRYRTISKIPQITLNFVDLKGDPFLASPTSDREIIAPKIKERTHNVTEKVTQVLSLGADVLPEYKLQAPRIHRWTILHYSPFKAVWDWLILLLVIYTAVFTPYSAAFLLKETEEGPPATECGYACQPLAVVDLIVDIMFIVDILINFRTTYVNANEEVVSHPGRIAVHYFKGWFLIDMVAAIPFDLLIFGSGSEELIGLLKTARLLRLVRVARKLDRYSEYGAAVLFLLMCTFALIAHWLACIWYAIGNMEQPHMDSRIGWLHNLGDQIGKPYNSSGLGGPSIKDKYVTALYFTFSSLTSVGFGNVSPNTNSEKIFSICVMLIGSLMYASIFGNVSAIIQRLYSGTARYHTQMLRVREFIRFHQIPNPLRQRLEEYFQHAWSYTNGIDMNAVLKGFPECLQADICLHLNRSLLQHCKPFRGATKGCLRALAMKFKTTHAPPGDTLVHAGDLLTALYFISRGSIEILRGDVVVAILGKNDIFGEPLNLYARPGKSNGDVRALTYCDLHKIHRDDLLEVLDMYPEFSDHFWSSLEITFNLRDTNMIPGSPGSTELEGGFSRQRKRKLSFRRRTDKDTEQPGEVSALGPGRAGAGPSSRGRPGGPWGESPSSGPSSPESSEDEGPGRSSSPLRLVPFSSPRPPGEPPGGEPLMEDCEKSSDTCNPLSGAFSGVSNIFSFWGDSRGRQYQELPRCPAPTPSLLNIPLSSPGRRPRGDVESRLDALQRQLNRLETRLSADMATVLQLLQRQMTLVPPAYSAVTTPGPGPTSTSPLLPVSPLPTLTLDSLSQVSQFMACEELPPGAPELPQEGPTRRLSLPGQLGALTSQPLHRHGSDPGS

[4] = tested on: HCT-116; test: Induction of apoptosis in human HCT116 cells assessed as caspase-3 cleavage at 1 to 4 uM after 24 hrs by Western blot analysis; format: functional, cell-based
[5] = Cell cycle arrest in human HCT116 cells assessed as accumulation at S phase at 4 uM after 24 hrs by FACS flow cytometric analysis (reference value: 18.71 +/- 2.25%); format: functional, cell-based; details: HCT-116
[6] = Cell cycle arrest in human HCT116 cells assessed as accumulation at sub-G1 phase at 4 uM after 72 hrs by FACS flow cytometric analysis (reference value: 3.29 +/- 1.39%); format: functional, cell-based; details: HCT-116
[7] = Antitumor activity against human H460 cells xenografted in nude mouse assessed as tumor growth inhibition at 30 mg/kg,iv qd administered for 6 days measured on day 19 to 26 relative to control; format: functional, NCI-H460
[8] = tested on: CCRF-CEM; test: Cytotoxicity against vinblastine-resistant human CCRF-CEM cells assessed as growth inhibition after 72 hrs by Alamar Blue assay; format: functional, cell-based
[9] = Cytotoxicity against human H1299 cells assessed as growth inhibition after 72 hrs by Alamar Blue assay; format: functional, cell-based; details: NCI-H1299, 72 h
[10] = Cell cycle arrest in human HCT116 cells assessed as accumulation at G1 phase at 4 uM after 72 hrs by FACS flow cytometric analysis (reference value: 76.29 +/- 2.65%); format: functional, cell-based; details: HCT-116
[11] = tested on: Mus musculus; test: Toxicity in nude mouse xenografted with human HCT116 cells assessed as body weight loss at 30 mg/kg,iv qd administered for 6 days measured on day 13 relative to control; format: organism-based, HCT-116; parameters: dose 30 mg/kg; details: in vivo, 144 h
[12] = Cytotoxicity against human PC3 cells assessed as growth inhibition after 72 hrs by Alamar Blue assay; format: functional, cell-based; details: PC-3, 72 h
[13] = tested on: PC-3; test: Antitumor activity against human PC3 cells xenografted in nude mouse assessed as survival at 50 mg/kg,iv administered every 2 days for 5 doses; format: functional, organism-based; parameters: dose 50 mg/kg
[14] = tested on: Mus musculus; test: Toxicity in iv dosed CD-1 (ICR) mouse assessed as swelling of cheek measured for 14 days; format: organism-based; details: in vivo, 336 h
[15] = tested on: Mus musculus; test: Toxicity in CD-1 (ICR) mouse assessed as body weight loss at 75 to 105 mg/kg, iv measured on day 8; format: organism-based; parameters: dose 75-105 mg/kg, route intravenous; details: in vivo
[16] = tested on: Mus musculus; test: Toxicity in CD-1 (ICR) mouse assessed as gross lesions in spleen at 150 mg/kg, iv measured for 14 days; format: organism-based; parameters: dose 150 mg/kg, route intravenous; details: in vivo, 336 h
[17] = Cell cycle arrest in human HCT116 cells assessed as accumulation at sub-G1 phase at 1 uM after 48 hrs by FACS flow cytometric analysis (reference value: 1.65 +/- 0.06%); format: functional, cell-based; details: HCT-116
[18] = tested on: Mus musculus; test: Toxicity in nude mouse xenografted with human PC3 cells assessed as change in body weight at 30 mg/kg,iv qd administered for 6 days measured on day 31 relative to control; format: organism-based, PC-3; parameters: dose 30 mg/kg; details: in vivo, 144 h
[19] = Antitumor activity against human PC3 cells xenografted in nude mouse assessed as tumor growth inhibition at 30 mg/kg,iv qd administered for 6 days measured on day 38 relative to control; format: functional; details: PC-3, iv, read-out: TGI
[20] = tested on: Mus musculus; test: Toxicity in nude mouse xenografted with human H3347 cells assessed as body weight loss at 30 mg/kg,iv qd administered for 6 days measured on day 13 relative to control; format: organism-based; parameters: dose 30 mg/kg; details: in vivo, 144 h
[21] = Cell cycle arrest in human HCT116 cells assessed as accumulation at G2/M phase at 2 uM after 24 hrs by FACS flow cytometric analysis (reference value: 31.55 +/- 4.63%); format: functional, cell-based; details: HCT-116
[22] = tested on: HCT-116; test: Induction of DNA interstand crosslinking in human HCT116 cells under aerobic condition assessed as decrease in tail moment at 0.5 to 1 uM preincubated for 1 hr followed by 20 Gy X-ray irradiation by comet assay; format: cell-based
[23] = Cell cycle arrest in human HCT116 cells assessed as accumulation at G1 phase at 2 uM after 72 hrs by FACS flow cytometric analysis (reference value: 76.29 +/- 2.65%); format: functional, cell-based; details: HCT-116
[24] = tested on: Mus musculus; test: Toxicity in nude mouse xenografted with human H460 cells assessed as body weight loss at 30 mg/kg,iv qd administered for 6 days measured on day 15 relative to control; format: organism-based; parameters: dose 30 mg/kg; details: in vivo, 144 h

CCN(CC)CC(=O)Nc1ccc(NC(=O)Nc2ccc(N(CCCl)CCCl)cc2)cc1
Activity [1]: -5%
Activity [2]: -12%
Activity [3]: 4.48 µM
Activity [4]: Active
Activity [5]: 27.6%
Activity [6]: 17.9%
%max [7]: 61%
IC50 [8]: 2.16 µM
IC50 [9]: 3.43 µM
Activity [10]: 18.1%
body weight change relative to control [11]: -5%
IC50 [12]: 3.57 µM
Activity [13]: Active
Activity [14]: Dose-dependent effect
Activity [15]: Toxic
Activity [16]: Toxic
Activity [17]: 9.86%
Activity [18]: -28%
inhibition in vivo at 30 mg/kg [19]: 16%
Activity [20]: 10%
Activity [21]: 64.3%
Activity [22]: Active
Activity [23]: 38.7%
%max [24]: -18%
